Experimental data as given in patent publication US20190330224A1, “ACC INHIBITORS AND USES THEREOF” (Gilead Apollo, LLC, priority 2015, published 2019).
Converted amounts (≈) assume the structure as drawn.

What was measured:
Human ACC2 = Human ACC2 (Homo sapiens, UniProt O00763); test: In vitro ACC2 inhibition assay (ADP-Glo), human ACC2; format: biochemical; conditions: 5 nM ACC2, 20 μM ATP, 20 μM acetyl-CoA
C. albicans ATCC 90028 = test: Anti-Fungal Activity Assay (broth microtiter MIC), C. albicans; format: cell-based, Candida albicans; conditions: Candida albicans, ATCC90028, 48 h, 3 replicates; MIC recorded at 48 h; read-out: MIC C. albicans ATCC 90028
Procedure, shortened: (§1)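 Broth microdilution per CLSI M27-A3 in RPMI 1640+MOPS, inoculum from overnight Sabouraud dextrose agar colonies at 35° C; compounds from 1 mg/mL DMSO stocks. MIC read visually against growth control at 48 h, with an added 24 h reading for soraphen.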

C. krusei ATCC 6258 = test: Anti-Fungal Activity Assay (broth microtiter MIC), C. krusei; format: cell-based, Candida krusei; conditions: Pichia kudriavzevii, ATCC6258, 48 h, 3 replicates; MIC recorded at 48 h; read-out: MIC C. krusei ATCC 6258
Procedure, shortened: as §1

[1] = system: C. parapsilosis ATCC 22019; test: Anti-Fungal Activity Assay (broth microtiter MIC), C. parapsilosis; format: cell-based, Candida parapsilosis; conditions: Lodderomyces parapsilosis, ATCC22019, 48 h, 3 replicates; MIC recorded at 48 h; read-out: MIC C. parapsilosis ATCC 22019
Procedure, shortened: as §1

Fungal ACC2 = Fungal ACC2 (UniProt Q00955); conditions: read-out: Fungal ACC2 (IC50, in vitro ACC2 inhibition)
Fungal ACC2, sequence (Q00955 whole entry): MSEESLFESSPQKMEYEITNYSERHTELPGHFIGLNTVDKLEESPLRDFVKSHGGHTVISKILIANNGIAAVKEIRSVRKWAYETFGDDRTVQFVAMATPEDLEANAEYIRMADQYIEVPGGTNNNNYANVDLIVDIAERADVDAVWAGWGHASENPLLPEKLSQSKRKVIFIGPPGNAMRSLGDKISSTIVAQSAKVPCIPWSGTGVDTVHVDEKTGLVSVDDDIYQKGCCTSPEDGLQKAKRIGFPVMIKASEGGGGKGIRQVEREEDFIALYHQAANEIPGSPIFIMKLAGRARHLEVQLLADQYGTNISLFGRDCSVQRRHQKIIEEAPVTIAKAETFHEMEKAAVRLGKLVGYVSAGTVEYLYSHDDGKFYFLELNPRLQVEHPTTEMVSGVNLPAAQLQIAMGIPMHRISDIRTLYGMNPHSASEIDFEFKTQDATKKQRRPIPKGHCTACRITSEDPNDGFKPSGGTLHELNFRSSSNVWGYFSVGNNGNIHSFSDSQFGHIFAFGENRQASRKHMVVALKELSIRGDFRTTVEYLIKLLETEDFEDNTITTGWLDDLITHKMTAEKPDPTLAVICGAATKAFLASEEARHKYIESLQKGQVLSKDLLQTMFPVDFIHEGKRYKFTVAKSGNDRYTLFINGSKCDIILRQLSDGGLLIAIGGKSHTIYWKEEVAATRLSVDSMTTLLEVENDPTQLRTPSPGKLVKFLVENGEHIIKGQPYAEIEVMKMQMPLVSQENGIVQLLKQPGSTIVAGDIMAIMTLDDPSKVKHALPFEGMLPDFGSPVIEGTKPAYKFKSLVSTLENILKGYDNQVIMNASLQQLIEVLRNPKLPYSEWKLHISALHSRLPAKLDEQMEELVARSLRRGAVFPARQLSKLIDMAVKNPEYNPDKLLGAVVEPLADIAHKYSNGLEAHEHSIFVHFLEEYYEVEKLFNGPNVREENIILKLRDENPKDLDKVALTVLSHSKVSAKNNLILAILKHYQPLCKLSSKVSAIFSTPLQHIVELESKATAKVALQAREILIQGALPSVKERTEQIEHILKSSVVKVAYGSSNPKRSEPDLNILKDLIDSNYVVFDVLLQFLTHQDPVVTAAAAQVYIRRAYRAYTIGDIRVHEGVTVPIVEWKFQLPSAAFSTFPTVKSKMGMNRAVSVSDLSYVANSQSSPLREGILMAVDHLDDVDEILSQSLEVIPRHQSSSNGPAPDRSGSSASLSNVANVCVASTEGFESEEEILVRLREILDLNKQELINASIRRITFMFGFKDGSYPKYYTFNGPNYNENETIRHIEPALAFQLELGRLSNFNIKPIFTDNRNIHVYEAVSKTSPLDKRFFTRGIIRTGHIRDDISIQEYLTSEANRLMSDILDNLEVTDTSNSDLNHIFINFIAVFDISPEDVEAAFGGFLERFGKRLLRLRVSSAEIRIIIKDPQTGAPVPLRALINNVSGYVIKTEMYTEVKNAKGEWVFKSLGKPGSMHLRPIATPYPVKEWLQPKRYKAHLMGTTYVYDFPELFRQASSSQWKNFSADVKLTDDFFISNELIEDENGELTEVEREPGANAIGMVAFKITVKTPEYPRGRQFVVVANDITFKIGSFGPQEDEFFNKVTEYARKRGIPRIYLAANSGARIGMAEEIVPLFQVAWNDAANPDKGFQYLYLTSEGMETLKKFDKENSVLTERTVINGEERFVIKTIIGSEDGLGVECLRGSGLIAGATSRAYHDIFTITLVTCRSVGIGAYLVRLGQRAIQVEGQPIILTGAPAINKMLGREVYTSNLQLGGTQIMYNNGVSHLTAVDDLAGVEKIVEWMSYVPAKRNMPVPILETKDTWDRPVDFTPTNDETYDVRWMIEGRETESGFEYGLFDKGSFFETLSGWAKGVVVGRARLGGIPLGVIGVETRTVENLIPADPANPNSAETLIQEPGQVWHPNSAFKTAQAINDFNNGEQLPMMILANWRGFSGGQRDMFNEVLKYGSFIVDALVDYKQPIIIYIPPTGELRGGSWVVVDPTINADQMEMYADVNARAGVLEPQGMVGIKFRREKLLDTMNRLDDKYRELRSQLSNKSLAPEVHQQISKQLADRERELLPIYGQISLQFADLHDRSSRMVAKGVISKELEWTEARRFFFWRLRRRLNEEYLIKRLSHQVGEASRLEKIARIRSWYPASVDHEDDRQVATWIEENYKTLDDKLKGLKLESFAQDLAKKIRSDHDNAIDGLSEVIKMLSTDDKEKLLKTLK

Human ACC2, sequence (O00763 whole entry): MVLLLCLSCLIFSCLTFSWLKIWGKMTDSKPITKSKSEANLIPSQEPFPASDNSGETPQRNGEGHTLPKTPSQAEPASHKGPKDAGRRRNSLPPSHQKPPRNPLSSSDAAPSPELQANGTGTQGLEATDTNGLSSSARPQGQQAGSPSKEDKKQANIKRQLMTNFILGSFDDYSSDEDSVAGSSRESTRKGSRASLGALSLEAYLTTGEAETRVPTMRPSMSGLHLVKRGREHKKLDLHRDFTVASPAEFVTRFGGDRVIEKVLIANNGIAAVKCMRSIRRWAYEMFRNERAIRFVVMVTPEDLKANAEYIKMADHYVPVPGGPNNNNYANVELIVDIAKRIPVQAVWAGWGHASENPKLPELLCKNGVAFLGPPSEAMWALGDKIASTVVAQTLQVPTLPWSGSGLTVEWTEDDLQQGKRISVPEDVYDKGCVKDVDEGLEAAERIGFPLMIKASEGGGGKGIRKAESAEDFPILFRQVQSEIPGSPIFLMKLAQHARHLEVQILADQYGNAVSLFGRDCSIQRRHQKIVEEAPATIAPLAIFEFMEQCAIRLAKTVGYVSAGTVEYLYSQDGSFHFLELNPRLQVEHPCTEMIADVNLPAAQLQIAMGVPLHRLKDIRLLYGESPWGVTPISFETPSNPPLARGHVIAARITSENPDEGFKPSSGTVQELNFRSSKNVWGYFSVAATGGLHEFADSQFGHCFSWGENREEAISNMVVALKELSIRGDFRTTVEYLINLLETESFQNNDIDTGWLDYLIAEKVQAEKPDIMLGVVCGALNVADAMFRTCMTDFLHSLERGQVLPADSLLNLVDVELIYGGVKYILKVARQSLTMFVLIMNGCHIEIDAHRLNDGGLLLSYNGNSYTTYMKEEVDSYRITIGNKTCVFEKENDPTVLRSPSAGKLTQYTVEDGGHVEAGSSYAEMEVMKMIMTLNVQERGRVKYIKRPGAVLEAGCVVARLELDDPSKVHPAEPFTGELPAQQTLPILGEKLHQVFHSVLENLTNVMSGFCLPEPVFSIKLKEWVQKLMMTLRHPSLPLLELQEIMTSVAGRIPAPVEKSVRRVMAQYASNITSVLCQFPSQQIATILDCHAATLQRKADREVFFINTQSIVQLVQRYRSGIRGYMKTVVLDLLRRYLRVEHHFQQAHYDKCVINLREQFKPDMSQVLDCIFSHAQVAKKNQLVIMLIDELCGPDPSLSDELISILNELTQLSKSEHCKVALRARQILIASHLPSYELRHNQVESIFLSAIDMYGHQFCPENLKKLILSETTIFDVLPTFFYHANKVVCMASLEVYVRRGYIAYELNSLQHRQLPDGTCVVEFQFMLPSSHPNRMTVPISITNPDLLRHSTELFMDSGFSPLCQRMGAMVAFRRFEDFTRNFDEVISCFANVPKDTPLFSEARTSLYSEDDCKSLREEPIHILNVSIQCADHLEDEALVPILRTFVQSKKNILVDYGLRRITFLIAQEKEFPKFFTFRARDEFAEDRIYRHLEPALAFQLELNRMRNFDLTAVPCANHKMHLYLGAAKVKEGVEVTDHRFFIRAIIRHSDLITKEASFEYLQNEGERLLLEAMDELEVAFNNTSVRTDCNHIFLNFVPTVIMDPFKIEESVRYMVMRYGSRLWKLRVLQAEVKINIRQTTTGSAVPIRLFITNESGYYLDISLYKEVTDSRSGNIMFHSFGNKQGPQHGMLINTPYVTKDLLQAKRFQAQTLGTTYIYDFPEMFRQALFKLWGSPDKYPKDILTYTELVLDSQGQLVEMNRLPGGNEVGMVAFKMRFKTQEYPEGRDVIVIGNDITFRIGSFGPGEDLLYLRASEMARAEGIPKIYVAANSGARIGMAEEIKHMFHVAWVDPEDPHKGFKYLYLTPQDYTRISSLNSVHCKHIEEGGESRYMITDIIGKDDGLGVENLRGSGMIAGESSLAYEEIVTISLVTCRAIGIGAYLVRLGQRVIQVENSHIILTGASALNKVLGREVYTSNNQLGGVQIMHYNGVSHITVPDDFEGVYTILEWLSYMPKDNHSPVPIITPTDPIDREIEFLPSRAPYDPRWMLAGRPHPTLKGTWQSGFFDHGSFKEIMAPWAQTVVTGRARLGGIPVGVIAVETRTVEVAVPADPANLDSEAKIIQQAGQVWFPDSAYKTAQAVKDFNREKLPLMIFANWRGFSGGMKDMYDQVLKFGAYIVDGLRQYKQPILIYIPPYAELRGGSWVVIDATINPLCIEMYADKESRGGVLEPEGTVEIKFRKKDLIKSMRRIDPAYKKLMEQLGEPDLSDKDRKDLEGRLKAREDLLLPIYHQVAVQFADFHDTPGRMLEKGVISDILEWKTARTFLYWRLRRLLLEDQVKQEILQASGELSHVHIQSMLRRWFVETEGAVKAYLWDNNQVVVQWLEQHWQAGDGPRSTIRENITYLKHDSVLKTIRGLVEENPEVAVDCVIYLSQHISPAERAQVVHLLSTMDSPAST

`COCCO[C@@H](Cn1c(=O)n([C@]2(C)CCCN(C)C2=O)c(=O)c2c(C)c(-n3nccn3)sc21)c1cc(F)ccc1OC` [Compound I-128, 3-((R)-1,3-dimethyl-2-oxopiperidin-3-yl)-1-((R)-2-(5-fluoro-2-methoxyphenyl)-2-(2-methoxyethoxy)ethyl)-5-methyl-6-(2H-1,2,3-triazol-2-yl)thieno[2,3-d]pyrimidine-2,4(1H,3H)-dione] was tested, and the IC50 (Human ACC2) was 10 to 100 nM, the MIC (C. albicans ATCC 90028) was 2.1 to 4 µg/mL (≈ 3.5 to 6.66 µM) and the MIC (C. krusei ATCC 6258) was 2.1 to 4 µg/mL (≈ 3.5 to 6.66 µM). For the same molecule, the MIC [1] was 2.1 to 4 µg/mL (≈ 3.5 to 6.66 µM) and the IC50 (Fungal ACC2) was 2 to 10 nM.

Work on `COc1ccc(F)cc1[C@H](Cn1c(=O)n([C@]2(C)CCCN(C)C2=O)c(=O)c2c(C)c(-n3nccn3)sc21)OCCO` [Compound I-129, 3-((R)-1,3-dimethyl-2-oxopiperidin-3-yl)-1-((R)-2-(5-fluoro-2-methoxyphenyl)-2-(2-hydroxyethoxy)ethyl)-5-methyl-6-(2H-1,2,3-triazol-2-yl)thieno[2,3-d]pyrimidine-2,4(1H,3H)-dione] yielded an IC50 (Human ACC2) of 10 to 100 nM, an MIC (C. albicans ATCC 90028) of 2.1 to 4 µg/mL (≈ 3.58 to 6.82 µM) and an MIC (C. krusei ATCC 6258) of 2.1 to 4 µg/mL (≈ 3.58 to 6.82 µM). It also gave an MIC [1] of 2.1 to 4 µg/mL (≈ 3.58 to 6.82 µM) and an IC50 (Fungal ACC2) of 0.7 to 2 nM.

`COCCO[C@@H](Cn1c(=O)n([C@@]2(C)CCCN(C)C2=O)c(=O)c2c(C)c(-n3nccn3)sc21)c1cc(F)ccc1OC` [Compound I-130, 3-((S)-1,3-dimethyl-2-oxopiperidin-3-yl)-1-((R)-2-(5-fluoro-2-methoxyphenyl)-2-(2-methoxyethoxy)ethyl)-5-methyl-6-(2H-1,2,3-triazol-2-yl)thieno[2,3-d]pyrimidine-2,4(1H,3H)-dione] was tested, and the IC50 (Human ACC2) was 100 to 1000 nM, the MIC (C. albicans ATCC 90028) was 2.1 to 4 µg/mL (≈ 3.5 to 6.66 µM) and the MIC (C. krusei ATCC 6258) was 2.1 to 4 µg/mL (≈ 3.5 to 6.66 µM). For the same molecule, the MIC [1] was 2.1 to 4 µg/mL (≈ 3.5 to 6.66 µM) and the IC50 (Fungal ACC2) was 2 to 10 nM.

`COc1ccc(F)cc1[C@H](Cn1c(=O)n([C@@]2(C)CCCN(C)C2=O)c(=O)c2c(C)c(-n3nccn3)sc21)OCCO` [Compound I-131, 3-((S)-1,3-dimethyl-2-oxopiperidin-3-yl)-1-((R)-2-(5-fluoro-2-methoxyphenyl)-2-(2-hydroxyethoxy)ethyl)-5-methyl-6-(2H-1,2,3-triazol-2-yl)thieno[2,3-d]pyrimidine-2,4(1H,3H)-dione] was tested, and the IC50 (Human ACC2) was 10 to 100 nM, the MIC (C. albicans ATCC 90028) was 2.1 to 4 µg/mL (≈ 3.58 to 6.82 µM) and the MIC (C. krusei ATCC 6258) was 2.1 to 4 µg/mL (≈ 3.58 to 6.82 µM). It also gave an MIC [1] of 2.1 to 4 µg/mL (≈ 3.58 to 6.82 µM) and an IC50 (Fungal ACC2) of 0.7 to 2 nM.

In the case of `COCCO[C@@H](Cn1c(=O)n([C@]2(C)CCC(=O)NC2)c(=O)c2c(C)c(-n3nccn3)sc21)c1cc(F)ccc1OC` [Compound I-132, 1-((R)-2-(5-fluoro-2-methoxyphenyl)-2-(2-methoxy-ethoxy)ethyl)-5-methyl-3-((R)-3-methyl-6-oxopiperidin-3-yl)-6-(2H-1,2,3-triazol-2-yl)thieno[2,3-d]pyrimidine-2,4(1H,3H)-dione], the IC50 (Human ACC2) is reported as 10 to 100 nM, the MIC (C. albicans ATCC 90028) is reported as 2.1 to 4 µg/mL (≈ 3.58 to 6.82 µM) and the MIC (C. krusei ATCC 6258) is reported as 2.1 to 4 µg/mL (≈ 3.58 to 6.82 µM). It also gave an MIC [1] of 2.1 to 4 µg/mL (≈ 3.58 to 6.82 µM) and an IC50 (Fungal ACC2) of 0.7 to 2 nM.

Molecule `COCCO[C@@H](Cn1c(=O)n([C@@]2(C)CCC(=O)NC2)c(=O)c2c(C)c(-n3nccn3)sc21)c1cc(F)ccc1OC` [Compound I-134, 1-((R)-2-(5-fluoro-2-methoxyphenyl)-2-(2-methoxy-ethoxy)ethyl)-5-methyl-3-((S)-3-methyl-6-oxopiperidin-3-yl)-6-(2H-1,2,3-triazol-2-yl)thieno[2,3-d]pyrimidine-2,4(1H,3H)-dione] has an IC50 (Human ACC2) of 100 to 1000 nM, an MIC (C. albicans ATCC 90028) of 2.1 to 4 µg/mL (≈ 3.58 to 6.82 µM) and an MIC (C. krusei ATCC 6258) of 2.1 to 4 µg/mL (≈ 3.58 to 6.82 µM). For the same molecule, the MIC [1] was 2.1 to 4 µg/mL (≈ 3.58 to 6.82 µM) and the IC50 (Fungal ACC2) was 2 to 10 nM.

With `COCCO[C@@H](Cn1c(=O)n([C@]2(C)CCC(=O)N(C)C2)c(=O)c2c(C)c(-n3nccn3)sc21)c1cc(F)ccc1OC` [Compound I-136, 3-((R)-1,3-dimethyl-6-oxopiperidin-3-yl)-1-((R)-2-(5-fluoro-2-methoxyphenyl)-2-(2-methoxyethoxy)ethyl)-5-methyl-6-(2H-1,2,3-triazol-2-yl)thieno[2,3-d]pyrimidine-2,4(1H,3H)-dione] the IC50 (Human ACC2) was 10 to 100 nM, the MIC (C. albicans ATCC 90028) was 2.1 to 4 µg/mL (≈ 3.5 to 6.66 µM) and the MIC (C. krusei ATCC 6258) was 2.1 to 4 µg/mL (≈ 3.5 to 6.66 µM). It also gave an MIC [1] of 2.1 to 4 µg/mL (≈ 3.5 to 6.66 µM) and an IC50 (Fungal ACC2) of 0.7 to 2 nM.

`COCCO[C@@H](Cn1c(=O)n([C@@]2(C)CCC(=O)N(C)C2)c(=O)c2c(C)c(-n3nccn3)sc21)c1cc(F)ccc1OC` [Compound I-137, 3-((S)-1,3-dimethyl-6-oxopiperidin-3-yl)-1-((R)-2-(5-fluoro-2-methoxyphenyl)-2-(2-methoxyethoxy)ethyl)-5-methyl-6-(2H-1,2,3-triazol-2-yl)thieno[2,3-d]pyrimidine-2,4(1H,3H)-dione] gave an IC50 (Human ACC2) of 10 to 100 nM, an MIC (C. albicans ATCC 90028) of 2.1 to 4 µg/mL (≈ 3.5 to 6.66 µM) and an MIC (C. krusei ATCC 6258) of 2.1 to 4 µg/mL (≈ 3.5 to 6.66 µM). The MIC [1] was 2.1 to 4 µg/mL (≈ 3.5 to 6.66 µM) and the IC50 (Fungal ACC2) was 2 to 10 nM.

`COc1ccc(F)cc1[C@H](Cn1c(=O)n([C@]2(C)CCC(=O)N(C)C2)c(=O)c2c(C)c(-n3nccn3)sc21)OCCO` [Compound I-142] gave an IC50 (Human ACC2) of 2 to 10 nM, an MIC (C. albicans ATCC 90028) of 2.1 to 4 µg/mL (≈ 3.58 to 6.82 µM) and an MIC (C. krusei ATCC 6258) of 2.1 to 4 µg/mL (≈ 3.58 to 6.82 µM). The MIC [1] was 2.1 to 4 µg/mL (≈ 3.58 to 6.82 µM) and the IC50 (Fungal ACC2) was 0.7 to 2 nM.

With `COc1ccc(F)cc1[C@H](Cn1c(=O)n([C@@]2(C)CCC(=O)N(C)C2)c(=O)c2c(C)c(-n3nccn3)sc21)OCCO` [Compound I-143, 3-((S)-1,3-dimethyl-6-oxopiperidin-3-yl)-1-((R)-2-(5-fluoro-2-methoxyphenyl)-2-(2-hydroxyethoxy)ethyl)-5-methyl-6-(2H-1,2,3-triazol-2-yl)thieno[2,3-d]pyrimidine-2,4(1H,3H)-dione] the IC50 (Human ACC2) was 2 to 10 nM, the MIC (C. albicans ATCC 90028) was 2.1 to 4 µg/mL (≈ 3.58 to 6.82 µM) and the MIC (C. krusei ATCC 6258) was 2.1 to 4 µg/mL (≈ 3.58 to 6.82 µM). The MIC [1] was 2.1 to 4 µg/mL (≈ 3.58 to 6.82 µM) and the IC50 (Fungal ACC2) was 0.7 to 2 nM.

For `COc1ccc(F)cc1[C@H](Cn1c(=O)n([C@H]2CCN(C)C2=O)c(=O)c2c(C)c(-n3nccn3)sc21)O[C@H]1CC[C@@H](O)CC1` [Compound I-152, 1-((R)-2-(5-fluoro-2-methoxyphenyl)-2-(((1 s, 4S)-4-hydroxycyclohexyl)oxy)ethyl)-5-methyl-3-((S)-1-methyl-2-oxopyrrolidin-3-yl)-6-(2H-1,2,3-triazol-2-yl)thieno[2,3-d]pyrimidine-2,4(1H,3H)-dione], the IC50 (Human ACC2) was 2 to 10 nM, the MIC (C. albicans ATCC 90028) was 0.25 to 1 µg/mL (≈ 0.408 to 1.63 µM) and the MIC (C. krusei ATCC 6258) was 0.25 to 1 µg/mL (≈ 0.408 to 1.63 µM). It also gave an MIC [1] of 0.25 to 1 µg/mL (≈ 0.408 to 1.63 µM) and an IC50 (Fungal ACC2) of 2 to 10 nM.

`COc1ccc(F)cc1[C@H](Cn1c(=O)n([C@@H]2CCN(C)C2=O)c(=O)c2c(C)c(-n3nccn3)sc21)O[C@H]1CC[C@@H](O)CC1` [Compound I-153, 1-((R)-2-(5-fluoro-2-methoxyphenyl)-2-(((1 s, 4S)-4-hydroxycyclohexyl)oxy)ethyl)-5-methyl-3-((R)-1-methyl-2-oxopyrrolidin-3-yl)-6-(2H-1,2,3-triazol-2-yl)thieno[2,3-d]pyrimidine-2,4(1H,3H)-dione] gave an IC50 (Human ACC2) of 2 to 10 nM, an MIC (C. albicans ATCC 90028) of 0.075 to 0.24 µg/mL (≈ 0.122 to 0.392 µM) and an MIC (C. krusei ATCC 6258) of 0.25 to 1 µg/mL (≈ 0.408 to 1.63 µM). For the same molecule, the MIC [1] was 0.25 to 1 µg/mL (≈ 0.408 to 1.63 µM) and the IC50 (Fungal ACC2) was 0.7 to 2 nM.

In the case of `COc1ccc(F)cc1[C@H](Cn1c(=O)n([C@H]2CCN(C)C2=O)c(=O)c2c(C)c(-n3nccn3)sc21)OCCCO` [Compound I-154, 1-((R)-2-(5-fluoro-2-methoxyphenyl)-2-(3-hydroxy-propoxy)ethyl)-5-methyl-3-((S)-1-methyl-2-oxopyrrolidin-3-yl)-6-(2H-1,2,3-triazol-2-yl)thieno[2,3-d]pyrimidine-2,4(1H,3H)-dione], the IC50 (Human ACC2) is reported as 2 to 10 nM, the MIC (C. albicans ATCC 90028) is reported as 2.1 to 4 µg/mL (≈ 3.67 to 6.99 µM) and the MIC (C. krusei ATCC 6258) is reported as 0.25 to 1 µg/mL (≈ 0.437 to 1.75 µM). The MIC [1] was 2.1 to 4 µg/mL (≈ 3.67 to 6.99 µM) and the IC50 (Fungal ACC2) was 0.7 to 2 nM.

With `COc1ccc(F)cc1[C@H](Cn1c(=O)n([C@@H]2CCN(C)C2=O)c(=O)c2c(C)c(-n3nccn3)sc21)OCCCO` [Compound I-155, 1-((R)-2-(5-fluoro-2-methoxyphenyl)-2-(3-hydroxypropoxy)ethyl)-5-methyl-3-((R)-1-methyl-2-oxopyrrolidin-3-yl)-6-(2H-1,2,3-triazol-2-yl)thieno[2,3-d]pyrimidine-2,4(1H,3H)-dione] the IC50 (Human ACC2) was 2 to 10 nM, the MIC (C. albicans ATCC 90028) was 2.1 to 4 µg/mL (≈ 3.67 to 6.99 µM) and the MIC (C. krusei ATCC 6258) was 2.1 to 4 µg/mL (≈ 3.67 to 6.99 µM). It also gave an MIC [1] of 2.1 to 4 µg/mL (≈ 3.67 to 6.99 µM) and an IC50 (Fungal ACC2) of 0.7 to 2 nM.
